Experimental data reported in patent US12662479B2 (Foghorn Therapeutics Inc., priority 2020, dated 2026).
Counter-ions that a name gives are not always drawn.

Assays:
[1] = molecular target: T1, HiBit-BRG1 fusion protein (Homo sapiens, UniProt P51532); assay: HiBiT-BRG1 cell-based degradation assay (Nano-Glo HiBiT Lytic Detection, 24 h); settings: HeLa cells expressing HiBit-BRG1 and LgBit; for DC50: read-out: BRG1 HiBit Degradation IC50; for Dmax: HeLa, top dose 30 μM, read-out: BRG1 HiBit Degradation Maximum measured
T1 construct: expressed in transfected cells
T1 sequence (P51532 whole entry, the tested form may be a part): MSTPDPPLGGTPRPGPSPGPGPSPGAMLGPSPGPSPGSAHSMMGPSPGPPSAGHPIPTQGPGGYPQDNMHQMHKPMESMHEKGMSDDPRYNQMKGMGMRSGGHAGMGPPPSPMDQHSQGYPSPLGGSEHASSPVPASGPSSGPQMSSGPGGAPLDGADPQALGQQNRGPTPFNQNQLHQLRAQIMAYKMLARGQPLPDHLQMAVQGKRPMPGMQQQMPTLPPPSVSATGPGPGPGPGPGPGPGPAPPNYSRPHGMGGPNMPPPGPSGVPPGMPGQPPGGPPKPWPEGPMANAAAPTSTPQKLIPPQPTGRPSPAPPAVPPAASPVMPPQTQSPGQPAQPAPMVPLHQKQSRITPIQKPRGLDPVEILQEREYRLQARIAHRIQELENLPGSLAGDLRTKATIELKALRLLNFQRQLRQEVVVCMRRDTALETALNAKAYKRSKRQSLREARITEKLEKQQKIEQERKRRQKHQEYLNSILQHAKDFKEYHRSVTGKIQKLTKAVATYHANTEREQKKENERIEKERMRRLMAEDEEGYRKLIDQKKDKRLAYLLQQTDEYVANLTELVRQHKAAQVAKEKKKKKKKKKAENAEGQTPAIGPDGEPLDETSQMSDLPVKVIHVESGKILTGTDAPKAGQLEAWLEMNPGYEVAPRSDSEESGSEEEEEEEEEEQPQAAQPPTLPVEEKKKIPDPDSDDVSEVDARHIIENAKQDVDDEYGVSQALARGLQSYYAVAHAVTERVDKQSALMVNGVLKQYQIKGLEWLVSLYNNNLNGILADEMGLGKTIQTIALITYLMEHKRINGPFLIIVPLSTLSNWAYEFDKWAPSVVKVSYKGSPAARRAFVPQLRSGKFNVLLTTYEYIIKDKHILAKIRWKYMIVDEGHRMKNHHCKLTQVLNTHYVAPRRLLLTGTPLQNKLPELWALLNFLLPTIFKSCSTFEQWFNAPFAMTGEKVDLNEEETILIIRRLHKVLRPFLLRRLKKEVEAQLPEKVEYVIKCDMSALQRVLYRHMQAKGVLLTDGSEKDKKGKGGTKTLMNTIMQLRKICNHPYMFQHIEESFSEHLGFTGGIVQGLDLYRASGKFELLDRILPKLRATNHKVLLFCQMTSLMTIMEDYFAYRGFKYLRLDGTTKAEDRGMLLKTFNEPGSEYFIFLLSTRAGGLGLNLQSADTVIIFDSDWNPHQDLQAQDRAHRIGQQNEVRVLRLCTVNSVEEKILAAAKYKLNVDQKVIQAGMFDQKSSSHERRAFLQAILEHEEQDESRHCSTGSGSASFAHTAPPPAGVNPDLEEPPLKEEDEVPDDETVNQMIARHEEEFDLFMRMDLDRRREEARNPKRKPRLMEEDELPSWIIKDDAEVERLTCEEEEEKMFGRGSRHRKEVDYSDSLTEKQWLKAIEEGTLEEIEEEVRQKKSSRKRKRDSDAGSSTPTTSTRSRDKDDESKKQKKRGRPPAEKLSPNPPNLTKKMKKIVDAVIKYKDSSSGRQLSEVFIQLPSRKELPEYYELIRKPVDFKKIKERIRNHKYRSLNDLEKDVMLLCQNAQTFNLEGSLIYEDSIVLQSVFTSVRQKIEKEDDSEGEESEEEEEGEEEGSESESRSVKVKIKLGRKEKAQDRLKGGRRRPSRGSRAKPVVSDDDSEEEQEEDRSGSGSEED
How it was run: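 Stable HeLa line expressing HiBiT-BRG1 and LgBiT, seeded at 5000 cells/well; luminescence read after lytic Nano-Glo HiBiT reagent and 10 min shaking at RT. % degradation normalised between DMSO (high control) and 2 μM reference BRM/BRG1 degrader (low control).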

[2] = molecular target: T2, HiBit-BRM fusion protein (Homo sapiens, UniProt P51531); assay: HiBiT-BRM cell-based degradation assay (Nano-Glo HiBiT Lytic Detection, 24 h); settings: HeLa cells expressing HiBiT-BRM; for DC50: read-out: BRM HiBit Degradation IC50; for BRM HiBit Degradation Maximum measured: top dose 30 μM
T2 construct: expressed in transfected cells
T2 sequence (P51531 whole entry, the tested form may be a part): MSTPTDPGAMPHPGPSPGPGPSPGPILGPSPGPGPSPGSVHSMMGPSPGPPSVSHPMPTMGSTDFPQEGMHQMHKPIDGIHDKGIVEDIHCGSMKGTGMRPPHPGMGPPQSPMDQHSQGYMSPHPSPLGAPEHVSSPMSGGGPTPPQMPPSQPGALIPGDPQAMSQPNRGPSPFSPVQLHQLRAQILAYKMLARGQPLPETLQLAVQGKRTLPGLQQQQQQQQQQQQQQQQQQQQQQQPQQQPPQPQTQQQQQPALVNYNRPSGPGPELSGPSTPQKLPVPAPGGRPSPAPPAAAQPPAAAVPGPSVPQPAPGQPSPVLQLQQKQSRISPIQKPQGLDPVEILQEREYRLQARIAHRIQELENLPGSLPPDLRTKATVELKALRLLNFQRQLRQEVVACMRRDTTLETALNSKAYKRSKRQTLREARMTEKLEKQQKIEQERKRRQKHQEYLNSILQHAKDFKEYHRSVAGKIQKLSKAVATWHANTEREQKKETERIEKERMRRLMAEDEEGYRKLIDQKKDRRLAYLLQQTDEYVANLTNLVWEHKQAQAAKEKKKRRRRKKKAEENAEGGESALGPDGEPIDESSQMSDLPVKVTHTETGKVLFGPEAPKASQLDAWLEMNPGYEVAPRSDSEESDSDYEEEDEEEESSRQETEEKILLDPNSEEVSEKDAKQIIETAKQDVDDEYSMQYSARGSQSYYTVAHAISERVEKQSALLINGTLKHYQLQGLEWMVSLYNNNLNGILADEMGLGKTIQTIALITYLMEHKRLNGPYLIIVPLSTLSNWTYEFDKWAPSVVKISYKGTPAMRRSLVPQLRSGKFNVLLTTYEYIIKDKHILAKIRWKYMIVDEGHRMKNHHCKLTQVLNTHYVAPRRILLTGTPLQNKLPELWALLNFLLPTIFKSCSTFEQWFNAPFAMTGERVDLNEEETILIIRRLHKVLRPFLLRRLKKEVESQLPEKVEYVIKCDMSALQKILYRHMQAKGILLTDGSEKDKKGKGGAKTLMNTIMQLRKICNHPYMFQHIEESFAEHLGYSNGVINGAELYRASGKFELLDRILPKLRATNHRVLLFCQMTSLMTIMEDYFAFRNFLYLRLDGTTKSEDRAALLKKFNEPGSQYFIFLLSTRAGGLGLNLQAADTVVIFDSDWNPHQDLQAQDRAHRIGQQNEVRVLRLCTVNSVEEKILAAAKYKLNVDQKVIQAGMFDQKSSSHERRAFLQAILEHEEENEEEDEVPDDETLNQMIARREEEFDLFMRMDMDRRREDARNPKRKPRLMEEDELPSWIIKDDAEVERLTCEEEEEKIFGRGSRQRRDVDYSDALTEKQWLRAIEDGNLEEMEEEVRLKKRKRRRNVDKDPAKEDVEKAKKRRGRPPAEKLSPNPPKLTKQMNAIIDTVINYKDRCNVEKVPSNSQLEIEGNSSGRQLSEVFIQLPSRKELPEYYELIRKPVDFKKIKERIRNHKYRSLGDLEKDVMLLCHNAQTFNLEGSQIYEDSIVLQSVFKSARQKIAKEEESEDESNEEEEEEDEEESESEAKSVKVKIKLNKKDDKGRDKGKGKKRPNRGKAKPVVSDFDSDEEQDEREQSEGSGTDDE
How it was run: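 HeLa cells stably expressing HiBiT-BRM were treated for 24 h with compounds (10-point 3-fold dilutions, 30 μM final top dose, in duplicate). HiBiT was detected by lytic LgBiT complementation luminescence. % degradation was normalized to DMSO (high control) and 2 μM of a reference BRM/BRG1 degrader (low control).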

Row | Structure (SMILES) | DC50 [1] [µM] | Dmax [1] [%] | DC50 [2] [µM] | BRM HiBit Degradation Maximum measured [2]
1 | CC(C)(C(=O)NCCOCCOCCNc1cccc2c1C(=O)N(C1CCC(=O)NC1=O)C2=O)n1ccc(-c2cccc(-c3csc(NC(=O)CNC(=O)c4ccn(S(C)(=O)=O)c4)n3)c2)n1 (stereo not shown) [Compound 6, N-(2-((4-(3-(1-(1-((2-(2-(2-((2-(2,6-dioxopiperidin-3-yl)-1,3-dioxoisoindolin-4-yl)amino)ethoxy)ethoxy)ethyl)amino)-2-methyl-1-oxopropan-2-yl)-1H-pyrazol-3-yl)phenyl)thiazol-2-yl)amino)-2-oxoethyl)-1-(methylsulfonyl)-1H-pyrrole-3-carboxamide] | > 10 | < 50 | > 10 | C (‘C’ = Maximum degradation <50%)
2 | CS(=O)(=O)n1ccc(C(=O)N[C@@H](COCc2ccc(C(=O)N3CCC(CCCCN4CCN(c5ccc6c(c5)C(=O)N(C5CCC(=O)NC5=O)C6=O)CC4)CC3)cc2)C(=O)Nc2nc(-c3ccccc3)cs2)c1 (stereo partly drawn) [Compound 195, N-((2S)-3-((4-(4-(4-(4-(2-(2,6-dioxopiperidin-3-yl)-1,3-dioxoisoindolin-5-yl)piperazin-1-yl)butyl)piperidine-1-carbonyl)benzyl)oxy)-1-oxo-1-((4-phenylthiazol-2-yl)amino)propan-2-yl)-1-(methylsulfonyl)-1H-pyrrole-3-carboxamide formate] | > 10 | < 50 | > 10 | C (‘C’ = Maximum degradation <50%)
3 | CN(CCNC(=O)C1(c2cc(-c3cccc(-c4csc(NC(=O)CNC(=O)c5ccn(S(C)(=O)=O)c5)n4)c3)ccn2)CC1)CCNc1cccc2c1C(=O)N(C1CCC(=O)NC1=O)C2=O (stereo not shown) [Compound 97, N-[2-[[4-[3-[2-[1-[2-[2-[[2-(2,6-dioxo-3-piperidyl)-1,3-dioxoisoindolin-4-yl]amino]ethyl-methyl-amino]ethylcarbamoyl]cyclopropyl]-4-pyridyl]phenyl]thiazol-2-yl]amino]-2-oxo-ethyl]-1-methylsulfonyl-pyrrole-3-carboxamide] | > 10 | < 50 | > 10 | C (‘C’ = Maximum degradation <50%)
4 | Cc1ncsc1-c1ccc(CNC(=O)[C@@H]2C[C@@H](O)CN2C(=O)[C@@H](NC(=O)CCCCCCC(=O)NCc2cc(-c3cccc(-c4csc(NC(=O)CNC(=O)c5ccn(S(C)(=O)=O)c5)n4)c3)ccn2)C(C)(C)C)cc1 [Compound 142] | > 10 | < 50 | > 10 | C (‘C’ = Maximum degradation <50%)
5 | Cc1ncsc1-c1ccc(CNC(=O)[C@@H]2C[C@@H](O)CN2C(=O)[C@@H](NC(=O)COCC(=O)NCCOc2cc(-c3cccc(-c4csc(NC(=O)CNC(=O)c5ccn(S(C)(=O)=O)c5)n4)c3)ccn2)C(C)(C)C)cc1 [Compound 78, N-[2-[[4-[3-[2-[2-[[2-[2-[[(1S)-1-[(2S,4R)-4-hydroxy-2-[[4-(4-methylthiazol-5-yl)phenyl]methylcarbamoyl]pyrrolidine-1-carbonyl]-2,2-dimethyl-propyl]amino]-2-oxo-ethoxy]acetyl]amino]ethoxy]-4-pyridyl]phenyl]thiazol-2-yl]amino]-2-oxo-ethyl]-1-methylsulfonyl-pyrrole-3-carboxamide] | > 10 | < 50 | > 10 | C (‘C’ = Maximum degradation <50%)
6 | CC(C)(C)n1ccc(C(=O)N[C@@H](COCc2ccc(C(=O)NC3CCN(CCOc4ccc5c(c4)C(=O)N(C4CCC(=O)NC4=O)C5=O)CC3)cc2)C(=O)Nc2nc(-c3ccccc3)cs2)c1 (stereo partly drawn) [Compound 170, 4-[[(2S)-2-[(1-tert-butylpyrrol-3-yl)formamido]-2-[(4-phenyl-1,3-thiazol-2-yl)carbamoyl]ethoxy]methyl]-N-[1-(2-[[2-(2,6-dioxopiperidin-3-yl)-1,3-dioxoisoindol-5-yl]oxy]ethyl)piperidin-4-yl]benzamide] | 0.1 to 1 | > 75 | 0.1 to 1 | A (‘A’ = Maximum degradation >75%)
7 | CS(=O)(=O)n1ccc(C(=O)N[C@@H](CCOCCCC(=O)N2CC(CCOc3cccc4c3C(=O)N(C3CCC(=O)NC3=O)C4=O)C2)C(=O)Nc2nc(-c3ccccc3)cs2)c1 (stereo partly drawn) [Compound 224, (2S)-4-[4-[3-(2-[[2-(2,6-dioxopiperidin-3-yl)-1,3-dioxoisoindol-4-yl]oxy]ethyl)azetidin-1-yl]-4-oxobutoxy]-2-[(1-methanesulfonylpyrrol-3-yl)formamido]-N-(4-phenyl-1,3-thiazol-2-yl)butanamide] | > 10 | < 50 | > 10 | C (‘C’ = Maximum degradation <50%)
8 | CN(CC(=O)N1CCC(C2CCN(C(=O)COc3cccc4c3C(=O)N(C3CCC(=O)NC3=O)C4=O)CC2)CC1)c1cc(-c2cccc(-c3csc(NC(=O)CNC(=O)c4ccn(S(C)(=O)=O)c4)n3)c2)ccn1 (stereo not shown) [Compound 17, N-(2-((4-(3-(2-((2-(1′-(2-((2-(2,6-dioxopiperidin-3-yl)-1,3-dioxoisoindolin-4-yl)oxy)acetyl)-[4,4′-bipiperidin]-1-yl)-2-oxoethyl)(methyl)amino)pyridin-4-yl)phenyl)thiazol-2-yl)amino)-2-oxoethyl)-1-(methylsulfonyl)-1H-pyrrole-3-carboxamide] | > 10 | < 50 | > 10 | C (‘C’ = Maximum degradation <50%)
9 | CS(=O)(=O)n1ccc(C(=O)N[C@@H](COCc2ccc(C(=O)NCCOCCOCCNC(=O)COc3ccc4c(c3)C(=O)N(C3CCC(=O)NC3=O)C4=O)cc2)C(=O)Nc2nc(-c3ccccc3)cs2)c1 (stereo partly drawn) [Compound 203, (2S)-3-([4-[(2-[2-[2-(2-[[2-(2,6-dioxopiperidin-3-yl)-1,3-dioxoisoindol-5-yl]oxy]acetamido)ethoxy]ethoxy]ethyl)carbamoyl]phenyl]methoxy)-2-[(1-methanesulfonylpyrrol-3-yl)formamido]-N-(4-phenyl-1,3-thiazol-2-yl)propanamide] | > 10 | < 50 | > 10 | C (‘C’ = Maximum degradation <50%)

Further lines, results first:

Row | DC50 [1] [µM] | Dmax [1] [%] | DC50 [2] [µM] | BRM HiBit Degradation Maximum measured [2] | Structure (SMILES)
10 | 0.1 to 1 | 50 to 75 | > 10 | C (‘C’ = Maximum degradation <50%) | CS(=O)(=O)n1ccc(C(=O)NCC(=O)Nc2nc(-c3cccc(-c4cccc(CNC(=O)CCCCCCCCCCNc5ccc6c(c5)C(=O)N(C5CCC(=O)NC5=O)C6=O)c4)c3)cs2)c1 (stereo not shown) [Compound 52]
11 | 0.1 to 1 | 50 to 75 | > 10 | C (‘C’ = Maximum degradation <50%) | CS(=O)(=O)n1ccc(C(=O)NCC(=O)Nc2nc(-c3cccc(-c4cccc(CNC(=O)CCCCCCCCCCNc5cccc6c5C(=O)N(C5CCC(=O)NC5=O)C6=O)c4)c3)cs2)c1 (stereo not shown) [Compound 51, N-[2-[[4-[3-[3-[[11-[[2-(2,6-dioxo-3-piperidyl)-1,3-dioxo-isoindolin-4-yl]amino]undecanoylamino]methyl]-phenyl]phenyl]thiazol-2-yl]amino]-2-oxo-ethyl]-1-methylsulfonyl-pyrrole-3-carboxamide]
12 | < 0.1 | 50 to 75 | > 10 | C (‘C’ = Maximum degradation <50%) | CS(=O)(=O)n1ccc(C(=O)NCC(=O)Nc2nc(-c3cccc(-c4ccnc(C5(C(=O)N6CCC7(CC6)CC(Oc6ccc8c(c6)C(=O)N(C6CCC(=O)NC6=O)C8=O)C7)CC5)c4)c3)cs2)c1 (stereo not shown) [Compound 151, N-[4-(3-[2-[1-(2-[[2-(2,6-dioxopiperidin-3-yl)-1,3-dioxoisoindol-5-yl]oxy]-7-azaspiro[3.5]nonane-7-carbonyl)cyclopropyl]pyridin-4-yl]phenyl)-1,3-thiazol-2-yl]-2-[(1-methanesulfonylpyrrol-3-yl)formamido]acetamide]
13 | 0.1 to 1 | 50 to 75 | > 10 | C (‘C’ = Maximum degradation <50%) | CS(=O)(=O)n1ccc(C(=O)NCC(=O)Nc2nc(-c3cccc(-c4ccnc(C5(C(=O)NCCCCCCCCNC(=O)COc6cccc7c6C(=O)N(C6CCC(=O)NC6=O)C7=O)CC5)c4)c3)cs2)c1 (stereo not shown) [Compound 13, N-(2-((4-(3-(2-(1-((8-(2-((2-(2,6-dioxopiperidin-3-yl)-1,3-dioxoisoindolin-4-yl)oxy)acetamido)octyl)carbamoyl)-cyclopropyl)pyridin-4-yl)phenyl)thiazol-2-yl)amino)-2-oxoethyl)-1-(methylsulfonyl)-1H-pyrrole-3-carboxamide]
14 | < 0.1 | > 75 | < 0.1 | A (‘A’ = Maximum degradation >75%) | Cc1ncsc1-c1ccc(CNC(=O)[C@@H]2C[C@@H](O)CN2C(=O)[C@@H](NC(=O)CCCCCCCCCNC(=O)C2(c3cc(-c4cccc(-c5csc(NC(=O)CNC(=O)c6ccn(S(C)(=O)=O)c6)n5)c4)ccn3)CC2)C(C)(C)C)cc1 [Compound 98, N-(2-((4-(3-(2-(1-((10-(((S)-1-((2S,4R)-4-hydroxy-2-((4-(4-methylthiazol-5-yl)benzyl)carbamoyl)pyrrolidin-1-yl)-3,3-dimethyl-1-oxobutan-2-yl)amino)-10-oxodecyl)carbamoyl)cyclopropyl)-pyridin-4-yl)phenyl)thiazol-2-yl)amino)-2-oxoethyl)-1-(methylsulfonyl)-1H-pyrrole-3-carboxamide]
15 | < 0.1 |  | < 0.1 |  | CC(C)(C)n1ccc(C(=O)N[C@@H](COCc2ccc(C(=O)NCCOC3CN(c4ccc5c(c4)C(=O)N(C4CCC(=O)NC4=O)C5=O)C3)cc2)C(=O)Nc2nc(-c3ccccc3)cs2)c1 (stereo partly shown) [Compound 171]
